This note sets out measurements from PubChem BioAssay (NCI).

Test systems include COLO 205 colon; MDA-MB-435; SK-OV-3 ovarian; SR leukemia; M14 melanoma; SW-620 colon; 786-0 renal; SNB-19 CNS; MCF7 breast; U251 CNS.
Holding throughout (assay): growth of human tumour cells (NCI), 48 h

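A five-concentration, 48-hour dose response in 96-well plates underlies each endpoint, interpolated linearly between surrounding concentrations. GI50 = concentration required for 50% inhibition of growth. TGI: total growth inhibition.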 A value given as a limit tells only on which side of the number the result lay.

`O=C(c1ccccc1Nc1ccnc(C(F)(F)F)c1)N1CCN(c2cccc(Cl)c2)CC1`: the GI50 with COLO 205 colon was 15.1 µM; in the assay with MDA-MB-435, 16.1 µM; with SK-OV-3 ovarian it was 28.3 µM; in the assay on SR leukemia, 13.5 µM; in the assay on M14 melanoma it was 21.4 µM; in the assay with SW-620 colon, 25 µM. Also, the GI50 was 23.2 µM with 786-0 renal, 26.1 µM in the assay with SNB-19 CNS, 18 µM with MCF7 breast and 24.5 µM in the assay on U251 CNS. The TGI in the assay on COLO 205 colon was 30.1 µM; with MDA-MB-435, 66.7 µM; with SK-OV-3 ovarian, 92.5 µM; in the assay with SR leukemia it was above 58.7 µM; in the assay with M14 melanoma, above 74.3 µM; in the assay on SW-620 colon, above 100 µM. The TGI with 786-0 renal was above 84 µM; in the assay on SNB-19 CNS, above 100 µM; with MCF7 breast, 80 µM; in the assay on U251 CNS it was 99.4 µM.
`O=C(Nn1c(-c2ccccc2)nc2ccccc2c1=O)c1ccccn1`: the TGI with COLO 205 colon, in the assay on MDA-MB-435, in the assay on SK-OV-3 ovarian, in the assay on SR leukemia, with M14 melanoma and with SW-620 colon was above 100 µM in each case. The TGI with 786-0 renal, in the assay with SNB-19 CNS and in the assay with U251 CNS was above 100 µM in each case.
Regarding `COc1ccc(-c2nn(-c3cccc(Cl)c3)cc2C=C(C#N)C#N)cc1`, the GI50 was 4.04 µM with COLO 205 colon; 2.66 µM in the assay on SK-OV-3 ovarian; 1.54 µM in the assay on SR leukemia; 2.39 µM with M14 melanoma; 1.9 µM in the assay on SW-620 colon; 2.25 µM in the assay on 786-0 renal. Further, the GI50 in the assay with SNB-19 CNS is 2.63 µM; in the assay on MCF7 breast, 2.35 µM; in the assay with U251 CNS, 1.59 µM. Besides, the TGI is 10.5 µM in the assay with COLO 205 colon; 5.72 µM with SK-OV-3 ovarian; 3.66 µM in the assay with SR leukemia; 6.92 µM in the assay with M14 melanoma; 5.45 µM with SW-620 colon; 6.36 µM with 786-0 renal. Besides, the TGI is above 100 µM with SNB-19 CNS, 7.72 µM with MCF7 breast and 3.33 µM in the assay on U251 CNS.
For the compound `Cl.[Pt].[c-]1ccccc1-c1ccccn1.c1ccc(P(c2ccccc2)C([PH+](c2ccccc2)c2ccccc2)[PH+](c2ccccc2)c2ccccc2)cc1`, the GI50 with MDA-MB-435 was 2.45 µM; with SK-OV-3 ovarian, 3.57 µM; with SR leukemia, 1.21 µM; in the assay with SW-620 colon, 2.32 µM; in the assay with 786-0 renal, 3.2 µM; in the assay on SNB-19 CNS, 0.764 µM. For the same compound, the GI50 is 1.52 µM in the assay with MCF7 breast and 0.577 µM in the assay on U251 CNS. Moreover, the TGI was 6.65 µM in the assay with MDA-MB-435; above 100 µM in the assay on SK-OV-3 ovarian; 28.6 µM with SR leukemia; 8.31 µM in the assay on SW-620 colon; 14.4 µM in the assay with 786-0 renal; 21.2 µM in the assay on SNB-19 CNS. The TGI turned out to be 47 µM in the assay with MCF7 breast and 2.69 µM in the assay with U251 CNS.
On to `Cc1ccc2c(c1)C(=O)c1c-2n(CCCN)c(=O)c2cc([N+](=O)[O-])ccc12`, for which the GI50 with COLO 205 colon is 0.178 µM; with MDA-MB-435 it was 0.413 µM; in the assay with SK-OV-3 ovarian, 0.147 µM; with SR leukemia, 0.0394 µM; in the assay on M14 melanoma, 0.452 µM; in the assay with 786-0 renal it was 0.0576 µM. Besides, the GI50 is 0.178 µM in the assay on SNB-19 CNS, 0.113 µM in the assay on MCF7 breast and 0.124 µM with U251 CNS. The TGI with COLO 205 colon is 0.913 µM; in the assay on MDA-MB-435, 1.09 µM; in the assay on SK-OV-3 ovarian, 0.502 µM; in the assay on SR leukemia, 0.201 µM; in the assay with M14 melanoma, 1.16 µM; in the assay on 786-0 renal, 0.208 µM. Also, the results for the TGI with SNB-19 CNS, with MCF7 breast and with U251 CNS were 0.706 µM, 0.836 µM and 0.832 µM, respectively.
On to `O=C1c2ccccc2C(=O)c2c1ccc(C(Br)Br)c2[N+](=O)[O-]`, for which the GI50 was 1.76 µM in the assay on MDA-MB-435; 14.1 µM in the assay with SK-OV-3 ovarian; 0.259 µM with SR leukemia; 1.97 µM in the assay on M14 melanoma; 0.488 µM with SW-620 colon; 1.85 µM in the assay on 786-0 renal. Besides, the GI50 in the assay with SNB-19 CNS is 1.93 µM; with MCF7 breast it was 0.598 µM; in the assay on U251 CNS, 1.6 µM. Besides, the TGI in the assay with MDA-MB-435 came to 3.29 µM; with SK-OV-3 ovarian, 27.1 µM; in the assay on SR leukemia, 1.75 µM; in the assay on M14 melanoma, 3.94 µM; in the assay on SW-620 colon, 2.07 µM; in the assay on 786-0 renal, 3.45 µM. The TGI in the assay on SNB-19 CNS turned out to be 4.42 µM; in the assay on MCF7 breast it was 2.54 µM; in the assay with U251 CNS, 2.97 µM.
Regarding `COC(=O)C(/C(=N/NC(=O)c1ccncc1)C(=O)Nc1ccccc1OC)c1nc2ccc(Cl)cc2[nH]c1=O` (centres undefined), the TGI with MDA-MB-435, in the assay on SK-OV-3 ovarian, with SR leukemia, with M14 melanoma, in the assay on SW-620 colon and with 786-0 renal was above 100 µM throughout. The TGI with MCF7 breast and with U251 CNS was above 100 µM in each case.
Regarding `O=C(O)c1c(O)c2cc(Br)ccc2oc1=O`, the TGI in the assay with COLO 205 colon, in the assay with MDA-MB-435, in the assay with SR leukemia, with M14 melanoma, with SW-620 colon and with 786-0 renal was above 100 µM in each case. The TGI with SNB-19 CNS, in the assay on MCF7 breast and in the assay with U251 CNS was above 100 µM each time.
Turning to `CCOC(=O)c1sc(-c2ccc(OS(=O)(=O)c3cccs3)c(C=O)c2)nc1C`, the GI50 in the assay on COLO 205 colon was 2.01 µM; with MDA-MB-435, 1.59 µM; with SK-OV-3 ovarian it was 3.25 µM; in the assay with SR leukemia it was 1.82 µM; in the assay with M14 melanoma it was 1.9 µM; with 786-0 renal it was 1.86 µM. In addition, the values for the GI50 in the assay with SNB-19 CNS, with MCF7 breast and in the assay with U251 CNS were 1.37 µM, 1.88 µM and 1.19 µM, respectively. In addition, the TGI in the assay on COLO 205 colon is 3.9 µM; with MDA-MB-435, 3.05 µM; in the assay with SK-OV-3 ovarian it was 7.79 µM; in the assay on SR leukemia it was above 100 µM; in the assay with M14 melanoma it was 3.86 µM; in the assay with 786-0 renal, 4.54 µM. Also, the TGI in the assay with SNB-19 CNS is 2.95 µM; in the assay with MCF7 breast, 4.51 µM; in the assay with U251 CNS it was 2.83 µM.
